Holding throughout (format): biochemical
In assay [1] the target is T1, human type 1 5α-reductase (Homo sapiens, UniProt P18405).
T1 construct: made in house; host or cells: Sf9 insect cells, recombinant baculovirus; microsomes
T1 sequence (P18405 1-259): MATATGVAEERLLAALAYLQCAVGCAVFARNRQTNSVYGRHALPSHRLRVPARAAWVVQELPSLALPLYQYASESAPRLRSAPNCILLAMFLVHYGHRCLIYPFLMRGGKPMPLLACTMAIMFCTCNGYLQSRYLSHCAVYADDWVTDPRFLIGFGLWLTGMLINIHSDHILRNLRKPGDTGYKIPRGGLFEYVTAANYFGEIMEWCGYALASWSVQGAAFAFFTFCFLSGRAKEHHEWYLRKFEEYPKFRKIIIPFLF
Description: Inhibition of human type 1 steroid 5α-reductase (microsomes; testosterone to DHT conversion). On the procedure: (§1) Enzyme activities may be determined using microsomes derived from: 1) prostate tissue from benign prostatic hyperplasia (BPH) patients; 2) recombinant baculovirus infected SF9 cells that express human type 1 5α-reductase; or 3) recombinant baculovirus infected SF9 cells that express human type 2 5α-reductase. Microsomes were prepared by homogenization of the tissue or cells, followed by differential centrifugation of the homogenate. Microsome extracts were incubated with varying concentrations of [1,2,6,7-^3 H]-testosterone, 1 mM NADPH, and varying amounts of the compounds of formula (I,) i.e. a test compound, in buffer containing a NADPH regenerating system capable of maintaining NADPH concentrations for a period of time within the range 0.5-240 minutes. Corresponding incubations were carried out with no test compound as a control study.
(§2) For type 1 IC50 measurements, assay components except testosterone were preincubated for 10 minutes at pH 7.0, and following the addition of 100 nM testosterone the assays were allowed to proceed for 10-120 minutes. For type 2 IC50 measurements, assay components except testosterone were preincubated for 20 minutes at pH 6.0, and following the addition of 8 nM testosterone the assays were allowed to proceed for 20-40 minutes. The percentage of conversion of testosterone to DHT in the presence of test compounds compared to the corresponding conversion in the control study was estimated using high performance liquid chromatography (HPLC) with radiochemical detection.

Assay [2] concerns the target T2, human type 2 5α-reductase (Homo sapiens, UniProt P31213).
T2 construct: made in house; host or cells: Sf9 insect cells, recombinant baculovirus; microsomes
T2 sequence (P31213 1-254): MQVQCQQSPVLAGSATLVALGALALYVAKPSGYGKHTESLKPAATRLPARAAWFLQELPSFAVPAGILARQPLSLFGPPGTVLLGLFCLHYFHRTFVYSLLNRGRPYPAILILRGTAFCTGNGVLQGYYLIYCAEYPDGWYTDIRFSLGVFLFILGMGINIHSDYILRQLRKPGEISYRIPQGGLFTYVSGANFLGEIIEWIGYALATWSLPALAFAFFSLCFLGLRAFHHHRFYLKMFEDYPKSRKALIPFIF
Put plainly: Inhibition of human type 2 steroid 5α-reductase (microsomes; testosterone to DHT conversion). The note with it: 20 min preincubation, pH 6.0, 8 nM testosterone, 20-40 min, 1 mM NADPH; read-out: IC50 Human Type 2 5AR. On the procedure:
as §1, §2

Assay [3] addresses T3, Human Adrenal 3BHSD (Homo sapiens, UniProt P26439).
T3 construct: microsomes derived from human adrenal tissues; from tissue; host or cells: human adrenal tissue, microsomes
T3 sequence (P26439 1-372): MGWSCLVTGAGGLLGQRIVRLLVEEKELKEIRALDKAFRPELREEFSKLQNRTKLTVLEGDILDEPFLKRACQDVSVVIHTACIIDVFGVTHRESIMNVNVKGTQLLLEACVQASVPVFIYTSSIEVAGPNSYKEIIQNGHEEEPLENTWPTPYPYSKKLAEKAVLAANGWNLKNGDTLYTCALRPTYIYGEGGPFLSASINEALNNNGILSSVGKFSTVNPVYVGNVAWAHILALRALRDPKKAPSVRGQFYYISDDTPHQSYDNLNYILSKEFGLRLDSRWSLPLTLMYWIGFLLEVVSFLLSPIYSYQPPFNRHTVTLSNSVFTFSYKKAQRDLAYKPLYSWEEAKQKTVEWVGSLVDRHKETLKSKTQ
Description: Inhibition of human adrenal 3β-hydroxy-Δ^5-steroid dehydrogenase/3-keto-Δ^5-steroid isomerase (3BHSD) (microsomes; DHEA to androstenedione conversion). The following applies: 1 mM NAD+, pH 7.5, 1 to 60 minutes. The procedure:
Enzyme activities are measured using microsomes derived from human adrenal tissues. Microsomes were prepared by homogenization of the tissue followed by differential centrifugation of the homogenate. Microsome extracts were incubated with varying concentrations of dehydroepiandrosterone (DHEA), 1 mM NAD+, and varying amounts of the compounds of Formula (I), i.e. a test compound, in pH 7.5 buffer for a period of time within the range of 1 to 60 minutes. Corresponding incubations were carried out with no test compound as a control study. The percentage of conversion of DHEA to androstenedione in the presence of test compounds compared to the corresponding conversion in the control study was estimated using HPLC with radiochemical detection.

Where [4] appears, read: 10 min preincubation, pH 7.0, 100 nM testosterone, 10-120 min, 1 mM NADPH, read-out: IC50 Human Type 1 5AR.

Read-outs that look alike come from different tables or passages of the source.

One may read the IC50 as the point on the concentration scale where inhibition reaches its midpoint. As a reminder, the Ki is a dissociation constant, usually derived from enzyme kinetics or from competition with a known ligand. Lower therefore signals higher affinity. For the molecule `C[C@]12CCC(=O)N[C@@H]1CC[C@@H]1[C@@H]2CC[C@]2(C)[C@@H](C(=O)NC3(c4ccc(Cl)cc4)CCCC3)CC[C@@H]12` [Compound 1, 17β-N-1-(4-Chlorophenyl)cyclopentylcarbamoyl-4-aza-5α-androstan-3-one], the values for the concentration for half-maximal inhibition (IC50) in assay [1] (setting [4]) and in assay [2] were 1 to 10 nM and less than 1 nM, respectively. Moreover, in assay [3], the Ki was more than 1000 nM.

`CN1C(=O)CC[C@]2(C)[C@H]3CC[C@]4(C)[C@@H](C(=O)NC5(c6ccc(Cl)cc6)CCCC5)CC[C@H]4[C@@H]3CC[C@@H]12` [Compound 2, 17β-N-1-(4-Chlorophenyl)cyclopentylcarbamoyl-4-methyl-4-aza-5α-androstan-3-one]: the IC50 in assay [1] (setting [4]) and in assay [2] was less than 1 nM throughout. The Ki in assay [3] was 10 to 10000 nM.

`C[C@]12C=CC(=O)N[C@@H]1CC[C@@H]1[C@@H]2CC[C@]2(C)[C@@H](C(=O)NC3(c4ccc(Cl)cc4)CCCC3)CC[C@@H]12` [Compound 3, 17β-N-1-(4-chlorophenyl)cyclopentylcarbamoyl-4-aza-5α-androst-1-en-3-one]: the IC50 in assay [1] and in assay [2] was less than 1 nM each time. This molecule yielded a Ki in assay [3] of more than 1000 nM.

As to `CC(C)(C)c1ccc(C2(NC(=O)[C@H]3CC[C@H]4[C@@H]5CC[C@H]6NC(=O)C=C[C@]6(C)[C@H]5CC[C@]34C)CCCC2)cc1` [Compound 4, 17β-N-1-(4-t-Butylphenyl)cyclopentylcarbamoyl-4-aza-5α-androst-1-en-3-one], the results for the IC50 in assay [1] (setting [4]) and in assay [2] were 1 to 10 nM and less than 1 nM, respectively. Also, in assay [3], the Ki is more than 1000 nM.

Regarding `CC(C)(C)c1ccc(C2(NC(=O)[C@H]3CC[C@H]4[C@@H]5CC[C@H]6NC(=O)C=C[C@]6(C)[C@H]5CC[C@]34C)CCCCC2)cc1` [Compound 5, 17β-N-1-(4-t-Butylphenyl)cyclohexylcarbamoyl-4-aza-5α-androst-1-en-3-one], the figures for the half-inhibitory concentration (IC50) in assay [1] (setting [4]) and in assay [2] were 1 to 10 nM and less than 1 nM, respectively. In assay [3], this molecule returned a Ki of more than 1000 nM.

Turning to `C[C@]12C=CC(=O)N[C@@H]1CC[C@@H]1[C@@H]2CC[C@]2(C)[C@@H](C(=O)NC3(c4ccc(Cl)cc4)CCCCC3)CC[C@@H]12` [Compound 6, 17β-N-1-(4-Chlorophenyl)cyclohexylcarbamoyl-4-aza-5α-androst-1-en-3-one], the IC50 in assay [1] (setting [4]) was 1 to 10 nM; in assay [2], less than 1 nM. The molecule further had a Ki in assay [3] of more than 1000 nM.

Regarding `C[C@]12C=CC(=O)N[C@@H]1CC[C@@H]1[C@@H]2CC[C@]2(C)[C@@H](C(=O)NC3(c4ccc(C(F)(F)F)cc4)CCCC3)CC[C@@H]12` [Compound 7, 17β-N-1-(4-Trifluoromethylphenyl)cyclopentylcarbamoyl-4-aza-5α-androst-1-en-3-one], the IC50 in assay [1] (setting [4]) is 1 to 10 nM; in assay [2], less than 1 nM. For the same molecule, the inhibition constant (Ki) in assay [3] was more than 1000 nM.

Regarding `COc1ccc(C2(NC(=O)[C@H]3CC[C@H]4[C@@H]5CC[C@H]6NC(=O)C=C[C@]6(C)[C@H]5CC[C@]34C)CCCC2)cc1` [Compound 8, 17β-N-1-(4-Methoxyphenyl)cyclopentylcarbamoyl-4-aza-5α-androst-1-en-3-one], the results for the IC50 in assay [1] (setting [4]) and in assay [2] were 1 to 10 nM and less than 1 nM, respectively. The molecule also had a Ki in assay [3] of more than 1000 nM.

For the molecule `C[C@]12C=CC(=O)N[C@@H]1CC[C@@H]1[C@@H]2CC[C@]2(C)[C@@H](C(=O)NC3(c4ccc(F)cc4)CCCC3)CC[C@@H]12` [Compound 9, 17β-N-1-(4-Fluorophenyl)cyclopentylcarbamoyl-4-aza-5α-androst-1-en-3-one], the IC50 in assay [1] (setting [4]) was 1 to 10 nM; in assay [2], less than 1 nM. Besides, the Ki in assay [3] is more than 1000 nM.

Take `C[C@]12C=CC(=O)N[C@@H]1CC[C@@H]1[C@@H]2CC[C@]2(C)[C@@H](C(=O)NC3(c4ccc(F)cc4)CCCCC3)CC[C@@H]12` [Compound 10, 17β-N-1-(4-Fluorophenyl)cyclohexylcarbamoyl-4-aza-5α-androst-1-en-3-one]: the figures for the IC50 in assay [1] (setting [4]) and in assay [2] were 1 to 10 nM and less than 1 nM, respectively. For the same molecule, in assay [3], the Ki was more than 1000 nM.

Regarding `COc1ccc(C2(NC(=O)[C@H]3CC[C@H]4[C@@H]5CC[C@H]6NC(=O)C=C[C@]6(C)[C@H]5CC[C@]34C)CCCCC2)cc1` [Compound 11, 17β-N-1-(4-Methoxyphenyl)cyclohexylcarbamoyl-4-aza-5α-androst-1-en-3-one], the results for the IC50 in assay [1] (setting [4]) and in assay [2] were 1 to 10 nM and less than 1 nM, respectively. Moreover, the inhibitory constant (Ki) in assay [3] is more than 1000 nM.

For the molecule `C[C@]12C=CC(=O)N[C@@H]1CC[C@@H]1[C@@H]2CC[C@]2(C)[C@@H](C(=O)NC3(c4ccc5c(c4)OCO5)CCCCC3)CC[C@@H]12` [Compound 12, 17β-N-1-(3,4-Methylenedioxyphenyl)cyclohexylcarbamoyl-4-aza-5α-androst-1-en-3-one], the IC50 in assay [1] (setting [4]) was 10 to 10000 nM; in assay [2], less than 1 nM. The same molecule registered a Ki in assay [3] of 10 to 10000 nM.

Consider `CC(C)(C)c1ccc(C2(NC(=O)[C@H]3CC[C@H]4[C@@H]5CC[C@H]6NC(=O)C=C[C@]6(C)[C@H]5CC[C@]34C)CCCCCC2)cc1` [Compound 13, 17β-N-1-(4-t-Butylphenyl)cycloheptylcarbamoyl-4-aza-5α-androst-1-en-3-one], for which the IC50 in assay [1] (setting [4]) was 1 to 10 nM; in assay [2], less than 1 nM. Besides, in assay [3], the inhibition constant Ki is more than 1000 nM.

Regarding `CC(C)(C)c1ccc(C2(NC(=O)[C@H]3CC[C@H]4[C@@H]5CC[C@H]6NC(=O)C=C[C@]6(C)[C@H]5CC[C@]34C)CCOCC2)cc1` [Compound 14, 17β-N-4-(4-t-Butylphenyl)tetrahydropyranylcarbamoyl-4-aza-5α-androst-1-en-3-one], the values for the IC50 in assay [1] (setting [4]) and in assay [2] were 1 to 10 nM and less than 1 nM, respectively. The Ki in assay [3] was more than 1000 nM.

In the case of `C[C@]12C=CC(=O)N[C@@H]1CC[C@@H]1[C@@H]2CC[C@]2(C)[C@@H](C(=O)NC3(c4ccc(Cl)cc4Cl)CC3)CC[C@@H]12` [Compound 15, 17β-N-1-(2,4-Dichlorophenyl)cyclopropylcarbamoyl-4-aza-5α-androst-1-en-3-one], the IC50 in assay [1] (setting [4]) was 1 to 10 nM; in assay [2], less than 1 nM. Also, the Ki in assay [3] was more than 1000 nM.

As for `CCC1(CC)CC1(NC(=O)[C@H]1CC[C@H]2[C@@H]3CC[C@H]4NC(=O)C=C[C@]4(C)[C@H]3CC[C@]12C)c1ccc(C(F)(F)F)cc1` (stereo partly drawn) [Compound 16, 17β-N-1-(4-Trifluoromethylphenyl)-2,2-diethylcyclopropylcarbamoyl-4-aza-5α-androst-1-en-3-one], the IC50 in assay [1] (setting [4]) is 1 to 10 nM; in assay [2] it was less than 1 nM. The molecule further had a Ki in assay [3] of more than 1000 nM.

Consider `CC1(C)CCC(NC(=O)[C@H]2CC[C@H]3[C@@H]4CC[C@H]5NC(=O)C=C[C@]5(C)[C@H]4CC[C@]23C)(c2ccc(C(C)(C)C)cc2)CC1` [Compound 17, 17β-N-1-(4-t-Butylphenyl)-4,4-dimethylcyclohexylcarbamoyl-4-aza-5α-androst-1-en-3-one], for which the IC50 in assay [1] (setting [4]) and in assay [2] was less than 1 nM in each case. The Ki in assay [3] was more than 1000 nM.

With `CC(C)(C)c1ccc(C2(NC(=O)[C@H]3CC[C@H]4[C@@H]5CC[C@H]6NC(=O)C=C[C@]6(C)[C@H]5CC[C@]34C)CCC(C(C)(C)C)CC2)cc1` (stereo partly drawn) [Compound 18, 17β-N-1-(4-t-Butylphenyl)-4-t-Butylcyclohexylcarbamoyl-4-aza-5α-androst-1-en-3-one], the IC50 in assay [1] (setting [4]) is 1 to 10 nM; in assay [2] it was less than 1 nM. In assay [3], this molecule registered a Ki of more than 1000 nM.

The values are drawn from US5817818A, “Androstenones” (Glaxo Wellcome Inc., priority 1996, dated 1998).
